Measured values from publication PMC7849180 (Frontiers in Pharmacology, 2020).
Counter-ions that a name gives are not always drawn. Like-named read-outs stand apart in the source and are kept apart here.

Key:
myelofibrosis [1] = conditions: ref Momelotinib extension study; cited from earlier work
myelofibrosis [2] = system: myelofibrosis; design: method as in RA Abdelrahman et. al.; conditions: ref RA Abdelrahman et. al., cited from earlier work; for CR / Clinical Improvement (CI) / PR: 2013 IWG-MRT criteria; for patients with symptom improvement: 2013 IWG-MRT-ELN criteria
myelofibrosis [3] = conditions: cited from earlier work
myelofibrosis [4] = system: myelofibrosis; design: method as in Ruxolitinib Phase I/II trials; conditions: within 3 months, 153 MF patients, ref Ruxolitinib Phase I/II trials; cited from earlier work
polycythemia vera = conditions: cited from earlier work
myelofibrosis [5] = system: myelofibrosis; design: method as in COMFORT-II; conditions: Week 48, ref COMFORT-II; cited from earlier work
myelofibrosis [6] = system: myelofibrosis; design: method as in COMFORT-I; conditions: ref COMFORT-I; cited from earlier work
[7] = system: primary cells harboring the JAK2V617F mutation in patients with polycythemia vera; test: Colony forming of erythroid hematopoietic cells of polycythemia vera patients; assay type: cell-based, human; conditions: 9 patients
Description: (§1) Suzhou Zelgen Biopharmaceuticals Co., Ltd. Jaktinib Hydrochloride Tablets Chemical Drug Class 1 New Drug and ZG0178. However, the inhibitory effect on the activity of Ba/F3-EpoR cell line […]
(§2) respectively. Obviously, this selective inhibition is associated with the aberrant expression of JAK2 in Ba/F3-EpoR-JAK2V617F mutant cells, and the degree of ZG0163 inhibition on JAK-STAT signaling pathway in this cell line. […]
(§3) cells, and the effects of ZG0163 was similar to those of positive control compounds, […]
(§4) In Vitro Inhibitory Effect of ZG0128 on Cell Lines Transfected with Oncogenes and Primary Blood Cells in Patients with Polycythemia Vera
(§5) In vitro cell culture assay was used to determine whether compound ZG0128 […]
(§6) cell line harboring a JAK2V617F mutation, and 8 HCD-57 cell lines stably transfected with oncogenic mutations JAK2V617F, MPLW515L, KITD816V, NPM-ALK, FLT3-ITD, FLT3D835H, FLT3D835Y and KRasG12V, respectively. In addition, study the inhibitory effects of compound ZG0128 on the growth of hematopoietic progenitor cells in patients with polycythemia vera.
(§7) 9 cell lines were similar to those of positive control drug ZG0192. At the sub-micromolar concentration, both compounds ZG0128 and ZG0192 were able to […]
(§8) the growth of HCD-57 cells transfected with oncogenic mutations JAK2V617F, […]
(§9) spectrum inhibitory effect on tyrosine kinases. […]

CYP2C8 = molecular target: T1, CYP2C8 (Homo sapiens, UniProt P10632); assay type: in vitro ADME; conditions: microsomes
T1 construct: using mixed human liver microsomes and human primary hepatocytes as the in vitro; from tissue; host or cells: mixed (pooled) human liver microsomes
T1 sequence (P10632 whole entry): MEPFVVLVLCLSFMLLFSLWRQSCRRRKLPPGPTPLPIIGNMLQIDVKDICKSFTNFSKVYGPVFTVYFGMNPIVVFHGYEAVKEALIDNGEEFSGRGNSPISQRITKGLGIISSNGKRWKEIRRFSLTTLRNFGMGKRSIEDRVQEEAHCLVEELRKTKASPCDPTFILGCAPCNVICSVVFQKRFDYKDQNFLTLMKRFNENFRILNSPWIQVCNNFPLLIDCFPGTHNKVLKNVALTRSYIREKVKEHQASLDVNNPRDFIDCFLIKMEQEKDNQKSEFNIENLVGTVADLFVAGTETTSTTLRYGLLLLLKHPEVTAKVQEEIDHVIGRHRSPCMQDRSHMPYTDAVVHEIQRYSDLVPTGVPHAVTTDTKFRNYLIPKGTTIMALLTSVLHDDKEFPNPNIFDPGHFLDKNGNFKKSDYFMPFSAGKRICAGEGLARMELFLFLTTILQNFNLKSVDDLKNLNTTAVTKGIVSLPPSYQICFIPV

CYP2C19 = molecular target: T2, CYP2C19 (Homo sapiens, UniProt P33261); assay type: in vitro ADME; conditions: microsomes
T2 construct: using mixed human liver microsomes and human primary hepatocytes as the in vitro; from tissue; host or cells: mixed (pooled) human liver microsomes
T2 sequence (P33261 whole entry): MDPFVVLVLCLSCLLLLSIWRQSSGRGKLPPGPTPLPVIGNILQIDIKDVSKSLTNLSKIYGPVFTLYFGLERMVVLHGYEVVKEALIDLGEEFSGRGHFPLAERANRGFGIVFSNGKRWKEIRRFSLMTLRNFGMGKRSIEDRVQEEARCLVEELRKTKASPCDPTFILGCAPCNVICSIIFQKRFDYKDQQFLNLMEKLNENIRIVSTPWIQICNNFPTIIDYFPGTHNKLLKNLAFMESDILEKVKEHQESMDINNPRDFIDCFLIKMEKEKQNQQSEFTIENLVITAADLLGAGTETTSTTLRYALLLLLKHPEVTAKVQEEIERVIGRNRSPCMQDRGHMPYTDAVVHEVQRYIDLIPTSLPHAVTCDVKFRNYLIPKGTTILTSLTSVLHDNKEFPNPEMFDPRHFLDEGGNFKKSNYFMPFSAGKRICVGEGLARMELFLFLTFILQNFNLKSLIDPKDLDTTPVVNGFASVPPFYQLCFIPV

CYP2D6 = molecular target: T3, CYP2D6 (Homo sapiens, UniProt P10635); assay type: in vitro ADME; conditions: microsomes
T3 construct: using mixed human liver microsomes and human primary hepatocytes as the in vitro; from tissue; host or cells: mixed (pooled) human liver microsomes
T3 sequence (P10635 whole entry): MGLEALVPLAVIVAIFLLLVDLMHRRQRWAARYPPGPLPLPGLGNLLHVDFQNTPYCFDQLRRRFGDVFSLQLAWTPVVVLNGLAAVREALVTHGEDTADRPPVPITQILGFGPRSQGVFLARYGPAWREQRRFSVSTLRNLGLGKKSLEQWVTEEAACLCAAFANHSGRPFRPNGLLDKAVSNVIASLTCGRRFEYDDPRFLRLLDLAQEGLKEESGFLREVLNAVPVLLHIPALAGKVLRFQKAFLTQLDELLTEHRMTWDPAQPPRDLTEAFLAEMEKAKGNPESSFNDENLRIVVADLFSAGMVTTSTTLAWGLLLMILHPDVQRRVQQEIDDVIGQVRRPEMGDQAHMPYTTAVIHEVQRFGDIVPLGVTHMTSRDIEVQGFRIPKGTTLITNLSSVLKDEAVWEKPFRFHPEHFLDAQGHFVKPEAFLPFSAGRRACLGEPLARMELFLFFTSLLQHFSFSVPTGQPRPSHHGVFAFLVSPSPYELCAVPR

CYP2C9 = molecular target: T4, CYP2C9 (Homo sapiens, UniProt P11712); assay type: in vitro ADME; conditions: microsomes
T4 construct: using mixed human liver microsomes and human primary hepatocytes as the in vitro; from tissue; host or cells: mixed (pooled) human liver microsomes
T4 sequence (P11712 whole entry): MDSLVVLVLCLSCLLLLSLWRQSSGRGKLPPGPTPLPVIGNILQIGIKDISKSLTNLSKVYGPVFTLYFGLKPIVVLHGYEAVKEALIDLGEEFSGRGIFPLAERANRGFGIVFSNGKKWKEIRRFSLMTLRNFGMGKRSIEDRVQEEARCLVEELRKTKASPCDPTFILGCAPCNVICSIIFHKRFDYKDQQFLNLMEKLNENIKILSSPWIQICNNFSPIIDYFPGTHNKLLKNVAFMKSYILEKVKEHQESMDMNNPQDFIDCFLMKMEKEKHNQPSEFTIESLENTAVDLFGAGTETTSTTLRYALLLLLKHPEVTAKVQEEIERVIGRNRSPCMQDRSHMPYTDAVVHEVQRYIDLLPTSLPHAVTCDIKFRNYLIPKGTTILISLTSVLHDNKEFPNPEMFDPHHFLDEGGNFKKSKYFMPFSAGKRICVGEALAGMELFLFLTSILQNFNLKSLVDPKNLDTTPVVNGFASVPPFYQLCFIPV

CYP1A2 = molecular target: T5, CYP1A2 (Homo sapiens, UniProt P05177); assay type: in vitro ADME; conditions: microsomes
T5 construct: using mixed human liver microsomes and human primary hepatocytes as the in vitro; from tissue; host or cells: mixed (pooled) human liver microsomes
T5 sequence (P05177 whole entry): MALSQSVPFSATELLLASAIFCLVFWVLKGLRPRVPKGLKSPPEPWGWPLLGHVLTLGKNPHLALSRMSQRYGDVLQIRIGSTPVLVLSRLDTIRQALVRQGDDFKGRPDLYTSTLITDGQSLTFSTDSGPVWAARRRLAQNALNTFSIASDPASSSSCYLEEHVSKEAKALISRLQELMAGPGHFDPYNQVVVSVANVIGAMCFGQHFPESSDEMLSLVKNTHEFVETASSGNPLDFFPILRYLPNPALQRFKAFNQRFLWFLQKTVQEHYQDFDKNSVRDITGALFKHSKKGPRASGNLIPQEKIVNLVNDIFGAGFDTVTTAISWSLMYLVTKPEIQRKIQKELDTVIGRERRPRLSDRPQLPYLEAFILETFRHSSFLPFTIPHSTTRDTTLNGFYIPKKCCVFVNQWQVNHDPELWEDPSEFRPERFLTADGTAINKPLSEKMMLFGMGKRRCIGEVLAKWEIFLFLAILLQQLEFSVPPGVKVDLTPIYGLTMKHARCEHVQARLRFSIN

CYP3A4 = molecular target: T6, CYP3A4 (Homo sapiens, UniProt P08684); test: CYP inhibition, mixed human liver microsomes; assay type: in vitro ADME
T6 construct: using mixed human liver microsomes and human primary hepatocytes as the in vitro; from tissue; host or cells: mixed (pooled) human liver microsomes
T6 sequence (P08684 whole entry): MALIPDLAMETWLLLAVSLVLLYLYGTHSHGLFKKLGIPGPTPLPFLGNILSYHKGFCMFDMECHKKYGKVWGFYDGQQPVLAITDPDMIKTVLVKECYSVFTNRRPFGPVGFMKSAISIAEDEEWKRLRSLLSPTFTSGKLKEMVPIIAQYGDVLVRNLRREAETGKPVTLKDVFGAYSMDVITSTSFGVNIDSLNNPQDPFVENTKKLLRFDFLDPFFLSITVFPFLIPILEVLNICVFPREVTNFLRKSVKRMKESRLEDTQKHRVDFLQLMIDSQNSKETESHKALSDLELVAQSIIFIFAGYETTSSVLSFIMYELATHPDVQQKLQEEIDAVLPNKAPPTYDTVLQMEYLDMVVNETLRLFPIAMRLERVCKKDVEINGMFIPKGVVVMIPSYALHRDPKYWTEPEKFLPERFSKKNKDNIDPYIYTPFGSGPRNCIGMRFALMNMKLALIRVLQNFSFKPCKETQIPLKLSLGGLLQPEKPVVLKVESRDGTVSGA

CYP2B6 = molecular target: T7, CYP2B6 (Homo sapiens, UniProt P20813); assay type: in vitro ADME; conditions: microsomes
T7 construct: using mixed human liver microsomes and human primary hepatocytes as the in vitro; from tissue; host or cells: mixed (pooled) human liver microsomes
T7 sequence (P20813 whole entry): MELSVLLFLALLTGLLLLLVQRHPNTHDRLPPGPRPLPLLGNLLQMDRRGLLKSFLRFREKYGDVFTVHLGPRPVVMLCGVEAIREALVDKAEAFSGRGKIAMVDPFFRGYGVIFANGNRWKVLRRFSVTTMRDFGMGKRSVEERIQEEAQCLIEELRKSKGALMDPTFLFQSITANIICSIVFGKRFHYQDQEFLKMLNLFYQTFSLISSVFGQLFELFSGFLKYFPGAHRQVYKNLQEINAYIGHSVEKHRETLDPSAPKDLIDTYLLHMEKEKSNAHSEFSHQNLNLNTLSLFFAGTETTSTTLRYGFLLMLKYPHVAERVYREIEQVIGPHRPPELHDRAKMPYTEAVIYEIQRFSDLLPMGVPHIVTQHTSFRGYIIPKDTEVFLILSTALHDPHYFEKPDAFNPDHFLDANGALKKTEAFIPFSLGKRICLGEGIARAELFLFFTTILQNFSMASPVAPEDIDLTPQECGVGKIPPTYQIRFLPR

[8] = system: J53Z1 cells harboring the JAK2V617F mutation and HCD-57 cells transfected with oncogenic mutations; test: Growth of cell lines transfected with oncogenes; assay type: cell-based
Description: as §1, §2, §3, §4, §5, §6, §7, §8, §9

[9] = 150 mg bid, ref Momelotinib Phase I/II
[10] = 150 mg qd, ref Momelotinib Phase I/II
[11] = 300 mg qd, ref Momelotinib Phase I/II
[12] = Grade 1, ref Momelotinib Phase I/II
[13] = Grade 2, ref Momelotinib Phase I/II
[14] = Grade 3, ref Momelotinib Phase I/II
[15] = Grade 4, ref Momelotinib Phase I/II
[16] = Total (n=166), ref Momelotinib Phase I/II
[17] = all cases (n=166), ref Momelotinib Phase I/II

## N#CCNC(=O)c1ccc(-c2ccnc(Nc3ccc(N4CCOCC4)cc3)n2)cc1 [Momelotinib]
Myelofibrosis [1]
  First Dose Effect: hypotension: 5%
  First Dose Effect: transient dizziness: 10%
  Grade 3/4 thrombocytopenia: 30%
  median maintenance duration of anemia response: 1,042 days
  median spleen response duration: 785 days
  patients with anemia response: 53%
  patients with spleen response (IWG-MRT): 39%
Myelofibrosis [2]
  CR: 0 (0%) n (%)
  Clinical Improvement (CI): 34 (57%) n (%)
  PR: 1 (1.7%) n (%)
  patients with symptom improvement: 57%
  Anemia Response: 42 (19; 45%) n (responses; %)
  Anemia Response in Transfusion-Dependent Patients: 32 (17; 53%) n (responses; %)
  Spleen Response: 57 (24; 42%) Evaluables (responses; %)
  anemia response rate: 45%
  spleen volume reduction response rate: 42%
Myelofibrosis [3]; [9]
  Average Reduction in Spleen Volume at Month 6: -46%
  Hemoglobin Elevation of 2 g/dL or Above (8 Weeks): 14%
  IWG-MRT Anemia Response Rate: 36%
  Spleen Response: 38%
  Transfusion Independence Rate (12 Weeks): 57%
Myelofibrosis [3]; [10]
  Average Reduction in Spleen Volume at Month 6: -36%
  Hemoglobin Elevation of 2 g/dL or Above (8 Weeks): 11%
  IWG-MRT Anemia Response Rate: 48%
  Spleen Response: 32%
  Transfusion Independence Rate (12 Weeks): 63%
Myelofibrosis [3]; [11]
  Average Reduction in Spleen Volume at Month 6: -38%
  Hemoglobin Elevation of 2 g/dL or Above (8 Weeks): 8%
  IWG-MRT Anemia Response Rate: 55%
  Spleen Response: 39%
  Transfusion Independence Rate (12 Weeks): 75%
Myelofibrosis [3]; [12]
  ALP Elevation: 5%
  ALT Elevation: 9%
  AST Elevation: 9%
  Amylase Elevation: 7%
  Anemia, drug-related AE: 2%
  Bilirubin Elevation: 7%
  Creatinine Elevation: 5%
  Diarrhea, drug-related AE: 18%
  Headache, drug-related AE: 14%
  Leukopenia, drug-related AE: 2%
  Lipase Elevation: 8%
  Nausea, drug-related AE: 20%
  Neutropenia, drug-related AE: < 1%
  Peripheral Neuropathy, drug-related AE: 25%
  Thrombocytopenia, Baseline Platelet > 150 x 109/L (n=97): 18%
  Thrombocytopenia, drug-related AE: 14%
  Vertigo, drug-related AE: 22%
Myelofibrosis [3]; [13]
  ALP Elevation: 1%
  ALT Elevation: 3%
  AST Elevation: 2%
  Amylase Elevation: 2%
  Anemia, drug-related AE: 2%
  Bilirubin Elevation: 2%
  Creatinine Elevation: 3%
  Diarrhea, drug-related AE: 4%
  Leukopenia, drug-related AE: < 1%
  Lipase Elevation: < 1%
  Nausea, drug-related AE: < 1%
  Neutropenia, drug-related AE: 2%
  Peripheral Neuropathy, drug-related AE: 2%
  Thrombocytopenia, Baseline Platelet > 150 x 109/L (n=97): 1%
  Thrombocytopenia, drug-related AE: 8%
  Vertigo, drug-related AE: 1%
Myelofibrosis [3]; [14]
  ALP Elevation: 1%
  ALT Elevation: 2%
  AST Elevation: 1%
  Anemia, drug-related AE: 2%
  Headache, drug-related AE: 1%
  Lipase Elevation: 4%
  Neutropenia, drug-related AE: 1%
  Thrombocytopenia, Baseline Platelet > 150 x 109/L (n=97): 9%
  Thrombocytopenia, drug-related AE: 17%
Myelofibrosis [3]; [15]
  Leukopenia, drug-related AE: < 1%
  Neutropenia, drug-related AE: 2%
  Thrombocytopenia, Baseline Platelet > 150 x 109/L (n=97): 1%
  Thrombocytopenia, drug-related AE: 7%
Myelofibrosis [3]; [16]
  Hemoglobin Elevation of 2 g/dL or Above (8 Weeks): 13%
  IWG-MRT Anemia Response Rate: 48%
  Transfusion Independence Rate (12 Weeks): 68%
Myelofibrosis [3]; [17]
  Average Reduction in Spleen Volume at Month 6: -38%
  Spleen Response: 37%
Myelofibrosis [3]; n=33, ref Momelotinib Phase I/II
  transfusion dependent patients with non-transfusion dependent duration of at least 12 weeks: 70%
Myelofibrosis [3]; ref Momelotinib Phase I/II
  patients with improvement of anemia: 59%
  symptom controlled: bone pain: 33%
  symptom controlled: cough: 29%
  symptom controlled: fever: 100%
  symptom controlled: night sweat: 57%
  symptom controlled: pruritus: 52%

## N#CC[C@H](C1CCCC1)n1cc(-c2ncnc3[nH]ccc23)cn1 [Ruxolitinib]
Myelofibrosis [4]
  patients with >50% reduction in spleen volume: 44%
Polycythemia vera; Ruxolitinib group, ref RESPONSE study
  Thrombus, patients: 1
Polycythemia vera; in vivo
  Herpes zoster infection: 6%
  herpes zoster incidence: 4.7%
Myelofibrosis [5]
  patients with ≥35% reduction in spleen volume: 28%
Myelofibrosis [2]
  CR: 0 (0%) n (%)
  Clinical Improvement (CI): 9 (18%) n (%)
  PR: 0 (0%) n (%)
  patients with symptom improvement: 18%
  Anemia Response: 19 (2; 11%) n (responses; %)
  Anemia Response in Transfusion-Dependent Patients: 12 (2; 17%) n (responses; %)
  Spleen Response: 46 (7; 15%) Evaluables (responses; %)
  anemia response rate: 11%
  spleen volume reduction response rate: 15%
Myelofibrosis [6]
  patients with ≥35% reduction in spleen volume: 41.9%

## N#CCNC(=O)c1ccc(-c2ccnc(Nc3ccc(N4CCOCC4)cc3)n2)cc1 [ZG0128, Jaktinib Dihydrochloride Monohydrate]
[7]
  IC50: 0.18 µM
CYP2C8
  IC50: > 100 µM
CYP2C19
  IC50: > 100 µM
CYP2D6
  IC50: > 100 µM
CYP2C9
  IC50: > 100 µM
CYP1A2
  IC50: > 100 µM
CYP3A4; microsomes
  IC50: > 100 µM
CYP3A4; midazolam 1'-hydroxylation, read-out: IC50
  IC50: > 100 µM
CYP2B6
  IC50: > 100 µM
[8]; J53Z1 and HCD-57 with JAK2V617F, MPLW515L, KITD816V, FLT3-ITD, FLT3D835H, FLT3D835Y, read-out: IC50, growth inhibition, range over cell lines
  IC50: 0.31 to 0.71 µM
[8]; transfected JAK2V617F cell lines, read-out: IC50
  IC50: 0.61 µM
